Data on one compound can be found in patent US5759995A, “Antiviral treatment” (priority 1996, dated 1998).

The structures appear in SMILES notation.

One data set relates to uninfected Vero cells. The data set is described as follows: Vero cell growth inhibition (SRB stain). The class given is cell-based, African Green monkey. The note with it: 48 hours. As for the experimental part: The effect of cyclomarin-A on the growth of uninfected Vero cells was examined. Vero cells were grown in RPMI with 5% FBS and passaged twice weekly by trypsinization. These were plated in 96 well sterile tissue culture plates at 2×10^4 cells/well in 200 μl and incubated overnight at 37° C. in a humidified atmosphere with 5% CO2. Cyclomarin-A (10 mg/ml stock solution) was serially diluted (100, 50, 25 and 12.5 μg/ml final concentrations) in 100% DMSO, and added to the cells in a volume of 2 μl. Final DMSO concentration was 1%. Plates were incubated at 37° C. for 48 hours. Cells were fixed by addition of 50% TCA to each well. Plates were incubated at 4° C. for 1 hour. After washing cells with distilled water 0.4% SRB (sulforhodamine B in 1% acetic acid) stain was added to each well. After 25 minutes the stain was washed away with 1% acetic acid and wells were allowed to dry. The remaining stain was resolubilized in 10 mM Tris pH 10.0. Optical density (OD) was determined spectrophotometrically at 650 nm. Percent inhibition of cell growth was calculated based on no drug, vehicle (1% DMSO) control wells as 100%.

In data set [1] the test system is HSV-2. The data set is described as follows: Combination study with acyclovir using the HSV-2 ELISA assay. It is filed as cell-based, Herpes Simplex virus 2. The note with it: cyclomarin-A 0 to 16 μg/ml, acyclovir 0 to 5 μg/ml. The procedure:
The ability of cyclomarin-A to inhibit HSV-2 was tested in a culture-based ELISA assay. This assay measures viral glycoprotein inserted into the surface membrane of infected cells, a step in the process of viral replication. Vero cells (African Green monkey kidney cells) were grown in RPMI-1640 medium with L-glutamine (Quality Biological, Gaithersburg, Md.) with 5% fetal bovine serum (FBS) and passaged twice weekly by trypsinization. These were plated in 96-well sterile tissue culture plates at 2×10^4 cells/well. After incubation overnight at 37° C. in a humidified atmosphere with 5% CO2, wells were inoculated with 1000 plaque forming units per well (PFU/well) HSV-2 (MacIntyre strain, ATCC # VR-539), previously titered by plaque assay and stored at -80° C. Virus was absorbed for 1 hour. Cyclomarin-A was diluted to concentrations between 10^-7 g/ml and 10^-4 g/ml in 50% DMSO and added to the cells in a final volume of 1.5 μl with 150 μl RPMI and 1% FBS. […]
Plates were incubated for 1 hour with a rabbit anti-HSV-2 IgG antibody diluted 1:5000 (DAKO, Carpenteria, Calif., catalog #B116), washed with PBS and incubated another hour with an HRP-labeled goat anti-rabbit antibody diluted 1:4000 (DAKO, catalog #PO448). […] OD was measured spectrophotometrically at a wavelength of 450 nm. Percent inhibition of HSV-2 was calculated against an infected, vehicle control (DMSO) with no drug added. […]

The test system of data set [2] is HSV-2. In words: Multiplicity of infection study using the HSV-2 ELISA assay. The note with it: 18 hours. The class given is cell-based, Herpes Simplex virus 2. As for the experimental part:
The ability of cyclomarin-A to inhibit HSV-2 was tested in a culture-based ELISA assay. This assay measures viral glycoprotein inserted into the surface membrane of infected cells, a step in the process of viral replication. Vero cells (African Green monkey kidney cells) were grown in RPMI-1640 medium with L-glutamine (Quality Biological, Gaithersburg, Md.) with 5% fetal bovine serum (FBS) and passaged twice weekly by trypsinization. These were plated in 96-well sterile tissue culture plates at 2×10^4 cells/well. After incubation overnight at 37° C. in a humidified atmosphere with 5% CO2, wells were inoculated with 1000 plaque forming units per well (PFU/well) HSV-2 (MacIntyre strain, ATCC # VR-539), previously titered by plaque assay and stored at -80° C. Virus was absorbed for 1 hour. Cyclomarin-A was diluted to concentrations between 10^-7 g/ml and 10^-4 g/ml in 50% DMSO and added to the cells in a final volume of 1.5 μl with 150 μl RPMI and 1% FBS. The final DMSO concentration was 0.5%. Plates were incubated for 18 hours at 37° C., and fixed with 10% formalin to inactivate the virus.
Plates were incubated for 1 hour with a rabbit anti-HSV-2 IgG antibody diluted 1:5000 (DAKO, Carpenteria, Calif., catalog #B116), washed with PBS and incubated another hour with an HRP-labeled goat anti-rabbit antibody diluted 1:4000 (DAKO, catalog #PO448). After washing with PBS, TMB substrate was added for 15 minutes and reaction was stopped with addition of 1M phosphoric acid. OD was measured spectrophotometrically at a wavelength of 450 nm. Percent inhibition of HSV-2 was calculated against an infected, vehicle control (DMSO) with no drug added.
The effect of multiplicity of virus infection on cyclomarin-A activity was examined using the HSV-2 ELISA assay described in Example 1. Vero cell cultures were inoculated with HSV-2 to a final concentration of 500, 1000, 2500, and 5000 PFU/well. After cyclomarin-A was added to cells in 150 μl RPMI and 1% FBS, cells were incubated for 18 hours at which time the ELISA assay was completed. Percent inhibition of HSV-2 replication was calculated against an infected, vehicle control (DMSO) at the appropriate MOI with no drug added.
A general note: An ELISA detects its analyte on a solid surface through an enzyme-linked reagent.

`COC(c1ccccc1)[C@@H]1NC(=O)[C@H](C)NC(=O)[C@H](CC(C)CO)N(C)C(=O)[C@H](C(O)c2cn(C(C)(C)C3CO3)c3ccccc23)NC(=O)[C@H](C(C)C=C(C)C)NC(=O)[C@H](CC(C)C)N(C)C(=O)[C@H](C(C)C)NC1=O` (stereo partly shown) [cyclomarin-A]: the “Percent inhibition of cell growth of uninfected Vero cells” value in the data set on uninfected Vero cells (100 μg/ml) was 27-33%. Besides, the “Effect on growth of uninfected Vero cells” value in the data set with uninfected Vero cells (concentrations below 50 μg/ml) is reported as “no effect on cell growth”. Moreover, in the data set on HSV-2 [1], the “Interference with acyclovir in combination” value is recorded as “no interference with acyclovir”. For the same compound, the “Percent inhibition of HSV-2 replication” value in the data set with HSV-2 [2] (6.25 μg/ml cyclomarin-A, 500 PFU/well) was 51%; with HSV-2 [2] (6.25 μg/ml cyclomarin-A, 1000 PFU/well), 40%; in the data set with HSV-2 [2] (6.25 μg/ml cyclomarin-A, 2,500 PFU/well) it was 17%; in the data set with HSV-2 [2] (6.25 μg/ml cyclomarin-A, 5000 PFU/well), “no detectable inhibition”.
